Consider one substance from patent publication US10695315B2, “Composition comprising avermectin compounds without gelling agents” (Nestlé Skin Health SA, priority 2016, dated 2020).

The data set is described as follows: Physical stability of the composition over time. The format is physicochemical. The note with it: in composition 2, over time (three months, 5° C. and RT). On the procedure: “Physical stability” means that the composition meets the acceptance criteria for appearance, physical attributes and functionality test (e.g. color, phase separation, dose delivery per actuation).
The table below represents physical stability of the composition 2 according to the invention at 5° C. and room temperature (RT) during three months.

For ivermectin, the “Ivermectin solubilized state, crystals formation” value is “remains solubilized over time, no crystals formation”.
